The values below are quoted from earlier work in patent US20030125243A1, “Synthesis of cyclic peptides” (priority 2000, published 2003).

In this series the target is αvβ3 (Homo sapiens, UniProt P05106+P06756). The settings on record: background statement, Haubner et al. 1996.
αvβ3, sequence (P06756 31-889 limits assumed): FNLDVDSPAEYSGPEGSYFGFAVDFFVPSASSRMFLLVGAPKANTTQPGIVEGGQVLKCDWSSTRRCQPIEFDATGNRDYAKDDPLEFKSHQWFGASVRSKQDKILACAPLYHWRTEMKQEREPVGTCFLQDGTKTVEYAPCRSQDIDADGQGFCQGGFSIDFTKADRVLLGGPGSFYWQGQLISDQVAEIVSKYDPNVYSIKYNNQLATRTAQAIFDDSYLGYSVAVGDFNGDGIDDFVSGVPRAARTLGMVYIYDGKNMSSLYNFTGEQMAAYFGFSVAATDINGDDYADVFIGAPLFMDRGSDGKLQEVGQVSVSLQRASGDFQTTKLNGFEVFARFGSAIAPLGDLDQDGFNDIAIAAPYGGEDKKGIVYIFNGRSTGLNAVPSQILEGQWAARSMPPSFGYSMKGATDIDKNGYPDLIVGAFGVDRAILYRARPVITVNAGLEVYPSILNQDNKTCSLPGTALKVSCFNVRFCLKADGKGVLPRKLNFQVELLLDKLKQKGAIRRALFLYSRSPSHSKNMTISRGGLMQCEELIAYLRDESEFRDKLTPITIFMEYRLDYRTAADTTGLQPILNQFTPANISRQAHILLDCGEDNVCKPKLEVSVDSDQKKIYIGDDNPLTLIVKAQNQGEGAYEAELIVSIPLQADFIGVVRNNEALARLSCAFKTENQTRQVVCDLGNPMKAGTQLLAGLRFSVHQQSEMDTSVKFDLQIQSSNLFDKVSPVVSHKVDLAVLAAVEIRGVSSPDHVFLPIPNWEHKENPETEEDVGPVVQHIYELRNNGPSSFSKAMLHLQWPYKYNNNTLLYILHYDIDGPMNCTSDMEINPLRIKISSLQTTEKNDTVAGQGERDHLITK
αvβ3, sequence (P06756 891-1048 partner limits assumed): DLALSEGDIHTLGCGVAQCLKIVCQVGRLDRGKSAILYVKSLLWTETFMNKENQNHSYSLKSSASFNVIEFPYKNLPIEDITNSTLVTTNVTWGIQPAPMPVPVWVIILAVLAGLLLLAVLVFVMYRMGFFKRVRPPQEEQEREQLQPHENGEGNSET
αvβ3, sequence (P05106 27-788): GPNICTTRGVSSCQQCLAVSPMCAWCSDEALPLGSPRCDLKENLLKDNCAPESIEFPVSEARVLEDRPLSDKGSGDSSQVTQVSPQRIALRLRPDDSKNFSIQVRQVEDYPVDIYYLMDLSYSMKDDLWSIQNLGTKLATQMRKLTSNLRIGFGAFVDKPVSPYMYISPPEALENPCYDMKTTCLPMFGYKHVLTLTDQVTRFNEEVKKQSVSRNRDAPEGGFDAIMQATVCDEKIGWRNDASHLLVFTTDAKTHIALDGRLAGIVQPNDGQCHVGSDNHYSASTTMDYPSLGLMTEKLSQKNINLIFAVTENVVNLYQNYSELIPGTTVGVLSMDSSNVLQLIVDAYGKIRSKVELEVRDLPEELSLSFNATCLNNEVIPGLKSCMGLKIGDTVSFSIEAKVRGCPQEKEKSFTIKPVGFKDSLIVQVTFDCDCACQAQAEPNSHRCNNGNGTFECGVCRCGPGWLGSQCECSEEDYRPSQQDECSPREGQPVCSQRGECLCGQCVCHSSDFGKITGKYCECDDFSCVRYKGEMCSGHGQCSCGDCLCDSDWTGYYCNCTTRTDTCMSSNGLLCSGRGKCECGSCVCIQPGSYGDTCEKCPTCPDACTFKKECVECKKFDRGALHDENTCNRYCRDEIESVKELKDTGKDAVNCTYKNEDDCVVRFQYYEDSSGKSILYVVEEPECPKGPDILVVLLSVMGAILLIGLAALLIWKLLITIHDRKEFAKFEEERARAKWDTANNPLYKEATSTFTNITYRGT

cRGDfK: the “binding to αvβ3 (potency and selectivity)” value was “high potency and selectivity”.
